Experimental data: patent publication US20160090351A1, “INHIBITORS OF DEUBIQUITINATING PROTEASES” (BRANDEIS UNIVERSITY, priority 2013, published 2016)

Key:
20S proteasome = 20S proteasome (Homo sapiens, UniProt P28074); experiment: proteasome activity (purified 20S proteasome; GFP-Ub (G76V) in Cos-1 cells); format: biochemical; conditions: 20S proteasome 30 minutes, Suc-Leu-Tyr-AMC 100 μM; Cos-1 GFP-Ub (G76V) 8 hours
Method: A. Purified 20S proteasome was treated with compound for 30 minutes prior to addition of substrate (Suc-Leu-Tyr-AMC, 100 μM). B. Cos-1 cells expressing with GFP-Ub (G76V) were treated with compound for 8 hours, then the level of GFP was measured by flow cytometry.

K562 cells = experiment: apoptosis, cell cycle and viability of K562 cells by flow cytometry; format: cell-based, human; conditions: annexin V-FITC / propidium iodide, 24 hours (TU50 also 8 hours)
Method: (§1) K562 cells are from a myelogenous leukemia line that expresses Bcr-Abl kinase. A. K562 cells were treated with TU50 for 24 hours after which time the cells were treated with annexin V-FITC and propidium iodide. Cells were then analyzed by flow cytometry. Cells showing only annexin V-FITC were considered apoptotic whereas cells showing both annexin V-FITC and propidium iodide were considered necrotic. N=2. All points show a significant difference to the vehicle (DMSO) with p<0.05. […] All points show a significant difference to vehicle (DMSO) with p<0.02. C. Same as A, but the incubation period was 8 hours. N>2. All points show a significant difference to DMSO with p<0.02. D, K562 cells were treated with TU50 for 4 hours. Samples were analyzed by SDS-PAGE and immunoblotting with anti-Bcr-Abl antibody. E. Quantitation of blot in D. The signal for tubulin was used to normalize the Bcr-Abl signal. N=3.
(§2) FIG. 40 depicts data showing that diphenyl carbonates induce the degradation of Bcr-Abl kinase. A. K562 cells were treated with C17 for 24 h (1 dose) then analyzed for Bcr-Abl expression by western blot with anti-Abl antibody. B. Quantitation of blots in A normalized to actin. C. K562 cells were treated with C17 for 24 h then the amount of cells in G1 and apoptosis were recorded (N=3). D. K562 were treated with C15 for 4 h then analyzed for Bcr-Abl expression using western blot. E. Quantitation of Bcr-Abl from D normalized to tubulin (N=4). F. Same K562 lysates were separately analyzed for K63-linked ubiquitin. G. Quantitation of blots in F (N=4). Differences between all bars is significant p<0.01). H. K562 cells were treated with C15 for 24 h after which time cells were fixed in ethanol, treated with propodium iodide/RNAse then analyzed by FACS. Viability was calculated using forward and side scatter. I. Same experiment as H but red fluorescence was measured to determine DNA content

USP9x = molecular target: T1, USP9x (Homo sapiens, UniProt Q93008); experiment: HA-Ub-VS labeling in K562 cell lysates; format: biochemical
T1 construct: endogenous in cells; host or cells: K562 cell lysate
T1 sequence (Q93008 whole entry): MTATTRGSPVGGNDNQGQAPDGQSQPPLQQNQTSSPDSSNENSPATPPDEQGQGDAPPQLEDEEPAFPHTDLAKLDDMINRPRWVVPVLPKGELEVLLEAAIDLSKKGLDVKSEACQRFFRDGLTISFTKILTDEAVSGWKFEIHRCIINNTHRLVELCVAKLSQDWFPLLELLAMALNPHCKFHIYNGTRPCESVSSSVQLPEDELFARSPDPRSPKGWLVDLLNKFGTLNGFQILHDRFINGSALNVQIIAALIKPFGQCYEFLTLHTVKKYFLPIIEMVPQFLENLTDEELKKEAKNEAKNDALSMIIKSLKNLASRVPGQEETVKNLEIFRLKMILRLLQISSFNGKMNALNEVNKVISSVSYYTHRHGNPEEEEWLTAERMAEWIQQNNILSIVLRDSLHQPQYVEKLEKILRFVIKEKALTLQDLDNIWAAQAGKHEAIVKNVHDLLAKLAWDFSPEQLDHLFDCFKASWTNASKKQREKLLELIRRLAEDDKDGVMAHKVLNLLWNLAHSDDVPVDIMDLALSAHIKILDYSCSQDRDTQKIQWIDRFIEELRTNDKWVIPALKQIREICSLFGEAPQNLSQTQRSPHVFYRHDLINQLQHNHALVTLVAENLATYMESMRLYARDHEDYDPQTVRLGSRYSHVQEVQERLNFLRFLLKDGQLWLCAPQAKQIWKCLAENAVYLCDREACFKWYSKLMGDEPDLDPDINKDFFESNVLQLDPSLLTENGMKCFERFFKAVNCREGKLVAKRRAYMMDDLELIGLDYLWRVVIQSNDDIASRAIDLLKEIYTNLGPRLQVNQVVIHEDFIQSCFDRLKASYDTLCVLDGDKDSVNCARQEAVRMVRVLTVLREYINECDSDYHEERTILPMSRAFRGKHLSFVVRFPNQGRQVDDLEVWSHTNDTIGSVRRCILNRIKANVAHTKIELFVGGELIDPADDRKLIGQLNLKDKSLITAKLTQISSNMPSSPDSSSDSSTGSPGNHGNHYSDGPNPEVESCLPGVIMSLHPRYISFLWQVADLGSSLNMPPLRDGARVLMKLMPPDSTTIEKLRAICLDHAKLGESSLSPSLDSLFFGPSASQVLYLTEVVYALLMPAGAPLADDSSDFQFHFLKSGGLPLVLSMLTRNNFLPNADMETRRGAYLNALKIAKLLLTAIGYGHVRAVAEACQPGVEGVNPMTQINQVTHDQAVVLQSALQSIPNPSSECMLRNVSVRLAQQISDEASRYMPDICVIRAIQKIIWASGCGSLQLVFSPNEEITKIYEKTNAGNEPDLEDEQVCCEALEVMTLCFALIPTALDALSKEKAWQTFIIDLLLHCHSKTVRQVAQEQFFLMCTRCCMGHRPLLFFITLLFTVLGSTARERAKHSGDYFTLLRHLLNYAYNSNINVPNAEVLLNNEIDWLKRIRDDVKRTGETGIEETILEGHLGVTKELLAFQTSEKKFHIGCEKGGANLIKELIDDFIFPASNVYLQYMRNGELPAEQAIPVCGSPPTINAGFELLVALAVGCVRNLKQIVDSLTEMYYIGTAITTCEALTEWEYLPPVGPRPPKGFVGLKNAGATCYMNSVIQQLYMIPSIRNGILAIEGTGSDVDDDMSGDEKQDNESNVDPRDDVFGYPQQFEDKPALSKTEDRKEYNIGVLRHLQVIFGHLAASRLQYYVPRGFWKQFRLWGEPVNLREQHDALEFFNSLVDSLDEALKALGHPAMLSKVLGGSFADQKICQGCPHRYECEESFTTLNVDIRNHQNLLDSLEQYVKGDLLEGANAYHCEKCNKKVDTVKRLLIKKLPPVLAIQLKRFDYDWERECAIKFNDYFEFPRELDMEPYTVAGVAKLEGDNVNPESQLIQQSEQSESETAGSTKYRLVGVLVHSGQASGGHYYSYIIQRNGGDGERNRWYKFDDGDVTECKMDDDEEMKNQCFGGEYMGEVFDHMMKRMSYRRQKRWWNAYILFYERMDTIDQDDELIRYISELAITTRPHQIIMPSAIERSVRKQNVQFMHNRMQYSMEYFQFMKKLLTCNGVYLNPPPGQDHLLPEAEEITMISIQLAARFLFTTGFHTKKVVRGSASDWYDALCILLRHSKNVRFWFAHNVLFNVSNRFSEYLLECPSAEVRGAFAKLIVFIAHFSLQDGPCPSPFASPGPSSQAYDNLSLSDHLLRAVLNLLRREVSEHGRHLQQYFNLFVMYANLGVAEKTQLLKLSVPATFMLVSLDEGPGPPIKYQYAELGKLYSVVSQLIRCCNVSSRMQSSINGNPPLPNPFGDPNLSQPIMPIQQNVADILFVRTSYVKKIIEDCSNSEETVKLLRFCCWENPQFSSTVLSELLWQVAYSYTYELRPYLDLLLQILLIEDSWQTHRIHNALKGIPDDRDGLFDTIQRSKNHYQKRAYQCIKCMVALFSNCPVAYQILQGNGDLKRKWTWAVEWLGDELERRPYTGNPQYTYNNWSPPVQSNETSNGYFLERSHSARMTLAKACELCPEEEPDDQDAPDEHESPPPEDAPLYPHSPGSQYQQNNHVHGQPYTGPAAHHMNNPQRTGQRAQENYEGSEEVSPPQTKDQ
Method: HA-Ub-VS is commonly used to label DUBs in cell lysates. […] A. and B. K562 cell lysates were treated with compound for 40 minutes prior to activity labeling with HA-Ub-VS (1.5 μM) for 20 minutes. Samples were analyzed by SDS-PAGE and immunoblotting with anti-HA antibody. C. […] Values were derived by fitting to the in Prism.

BaF3.p210 = experiment: cytotoxicity in a panel of cell lines, Alamar Blue; format: cell-based, mouse
Method: Cytoxicity was tested against a panel of cell lines: (i) B16/F10, a metastatic mouse melanoma cell line that suppresses the tumor suppressor Gas1 (Growth arrest-specific 1); (ii) BaF3, an immortalized mouse pro-B cell line that depends on IL-3 for growth and proliferation (L-3 stimulates expression of the pro-survival Bc1-2 family member, Mc1-1; and USP9x is the deubiquitinase responsible for stabilizing Mc1-1); (iii) Cos-1, monkey kidney fibroblast immortalized with SV40 T antigen; (iv) BaF3.p210, BaF3 cells expressing Bcr-Abl kinase (p210), the mutant protein that causes chronic myelogenous leukemia, and the target of Gleevec (The expression of Bcr-Abl cause proliferation to become IL-3-independent. These cells have been widely used in the development of Bcr-Abl kinase inhibitors. USP9x stabilizes Bcr-Abl by removing Ub and blocking degradation via autophagy.); (v) HEK293T, human embryonic kidney cell line expressing SV40 T antigen; (vi) HeLa, human cervical adenocarcinoma cell line; (vii) MCF7, human breast cancer cell line; and (viii) NIH3T3, mouse fibroblast cell line. Of these, the only cells dependent on USP9x for survival are BaF3.p210 and BaF3. A. Cells were treated with a single dose of TU50 for 48 h and viable cells were measured using Alamar Blue®. EC50=8±2 μM for BaF3.p210. B. As above, except that cells were treated with TU50 for 72 h.

Bcr-Abl kinase = experiment: Bcr-Abl levels in K562 cells by immunoblotting; format: cell-based, human; conditions: TU50 4 hours
Method: as §1
FIG. 34 depicts data showing that diphenylcarbonates cause the accumulation of HMW-Ub and reduce the levels of Bcr-Abl in K562 cells. A. K562 cells were treated with diphenyl carbonates (50 μM) for 2 h and then assayed for the accumulation of K48-linked Ub. B. As in A, but Bcr-Abl was measured by immunoblotting with anti-Abl antibodies. C. K562 cells were treated with C17 (50 μM) in the presence and absence of bortezomib (6 μM) for 4 hours and Bcr-Abl was measured by immunblotting with anti-Abl antibodies. D. Quantitation of blot in C. Significance: DMSO relative to C17 and bortezomib p=0.002; DMSO relative to C17, p=0.03. E. K562 cells were treated with C15 for 4 hours then analyzed for SMAD4 monoubiquitination by western blot. F. Quantitation of blots in A. (N=3). See also FIG. 40.
as §2
Transfected cells were harvested 1.5 days post transfection. […] Typically clarified lysate was analyzed.

cathepsin C = cathepsin C (Homo sapiens, UniProt P53634); experiment: cathepsin C inhibition; format: biochemical; conditions: compounds numbered as in FIG. 5
Chain of cathepsin C (P53634 25-463, species assumed): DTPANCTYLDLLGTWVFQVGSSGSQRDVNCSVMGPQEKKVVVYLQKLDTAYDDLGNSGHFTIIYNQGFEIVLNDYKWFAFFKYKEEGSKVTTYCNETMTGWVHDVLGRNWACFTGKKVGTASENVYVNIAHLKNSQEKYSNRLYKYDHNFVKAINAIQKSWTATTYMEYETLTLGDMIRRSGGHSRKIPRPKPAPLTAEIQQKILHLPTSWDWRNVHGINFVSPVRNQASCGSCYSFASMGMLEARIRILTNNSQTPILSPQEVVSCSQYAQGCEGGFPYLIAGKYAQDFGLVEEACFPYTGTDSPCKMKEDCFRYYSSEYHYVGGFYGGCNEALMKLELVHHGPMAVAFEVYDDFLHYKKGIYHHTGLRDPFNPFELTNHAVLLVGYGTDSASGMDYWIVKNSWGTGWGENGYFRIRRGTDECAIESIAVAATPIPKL

desumoylation = experiment: stabilization of SUMOylated proteins in lysates from HA-SUMO transfected HEK 293T cells; format: biochemical, human; conditions: G5 5 μM, C4 300 μM
Method: Untransfected HEK 293T cell lysates were treated with the vehicle alone (DMSO at 1%) or compound and incubated at 37° C. for 2 h. Samples were analyzed by SDS-PAGE and immunoblotting with antibody recognizing K48-linked ubiquitin. D=DMSO; G5=G5 isopeptidase inhibitor 1. A-D show titrations of different compounds (see FIG. 29B for structures). E-H Lysates were prepared from HEK 293T cells expressing HA-SUMO and treated with vehicle alone (DMSO, 1%) or compound. Samples were incubated for the appropriate time and analyzed by SDS-PAGE and immunoblotting with anti-HA antibody. Representative experiments are shown. E. Vehicle control. F. G5, 5 μM; G. C4, 300 μM. H. Quantification of blots as in E-G, N=2 average and range. I-J. Lysates were prepared from HEK 293T cells expressing HA-Ub and treated with either vehicle alone (1% DMSO) or compound at 37° C. for 3 h. Samples were analyzed by SDS-PAGE and immunoblotting with anti-HA antibody. I. A representative experiment. J. Quantitation of experiments in I (N=2 average and range shown). […]
Similar effects were observed when the endogenous K48-linked ubiquitin pool was monitored in lysates prepared from wild-type HEK 293T cells (FIG. 37A-D). Unfortunately, K63-linked ubiquitin could not be detected in these lysates. The ability of C4 to stabilize SUMOylated proteins in lysates from HA-SUMO transfected HEK 293T cells was also assessed.

DUBs = experiment: decomposition of high molecular weight ubiquitinated proteins (HMW-Ub) in lysates of HEK 293T cells expressing HA-Ub; format: biochemical, human; conditions: HEK 293T HA-Ub lysates, 37° C.
Method: FIG. 30 depicts data showing that diphenylcarbonates inhibit the decomposition of high molecular weight ubiquitinated proteins (HMW-Ub). Lysates were prepared from HEK 293T cells expressing HA-ubiquitin. Samples were incubated at 37° C. and reactions were quenched by the addition of reducing Laemmli buffer. HMW-Ub was assessed by SDS-PAGE and immunoblotting with anti-HA antibody. A. Representative immunoblots measuring the decomposition of HMW-Ub in lysates treated with either the DMSO vehicle, G5 (10 μM) or C4 (500 μM). B. Plot of the decomposition of HMW-Ub in lysates treated with DMSO and C4 (500 μM) (N=2; error bars denote range). C. Inhibition of HMW-Ub decomposition by diphenylcarbonates. Lysates were treated with diphenylcarbonates (50 μM). “-” denotes no treatment; D, 1% DMSO vehicle; IU1, an USP14-specific inhibitor; Bort, bortezomib, a proteasome inhibitor. D. Representative decomposition of HMW-Ub after 2 h incubation in the presence of varying concentrations of C4. See also FIG. 36. E. Quantitation of D. The values of EC50 reported in FIG. 29B are the average and S.E.M. of at least 3 independent experiments. See also FIG. 37 and FIG. 38.
Cells overexpressing HA-ubiquitin were prepared as above. Pellets were typically stored at −80° C. until required, at which time they were thawed on ice. Cell lysis was performed in lysis buffer using a Dounce homogenizer (10 strokes, with grinding, on ice: typical yield approx. 2-5 mg protein per transfected T75 flask for HEK 293T cells; 1-3 mg protein from a T75 flask for Cos-1). Crude lysate was centrifuged at 17000 g for 10 min at 4° C., after which time the concentration of the lysate was normalized to 1 mg/mL. The lysate was aliquoted into PCR strip tubes (typical volumes 75-50 μL) and compound in DMSO was added to this to give a final concentration of DMSO of 1%. Tubes were briefly centrifuged, overlaid with Chill-out wax (50 μL) and placed in a PCR machine at 37° C. with heated lid set to 37° C. Aliquots (9 μL) were removed at the stated times and immediately quenched in (2× final concentration) reducing (dithiothreitol) loading buffer and frozen (−19° C.) till required. Western blot analysis was carried out using standard methods. Samples were resolved by SDS-PAGE, transferred to PVDF [(0.45 μm) (Towbin buffer, tank apparatus, 90 V 1 hour, then overnight at 30 V, 4° C.)] then blocked in 15% milk in TBS-T HS (100 mM Tris HCl, pH 7.6, 500 mM NaCl, 0.5% […]) for at least 2 hours at RT. Afterward, membrane was washed in TBS-T HS then probed with anti HA-HRP (1:18000) for 1.33 hours at RT. Membrane was washed 3 times in TBS-T HS (15 mins) then once in TBS (15 mins) and exposed to ECL II and visualized using blue biofilm. […] When required, membranes were stripped in 100 mM glycine pH 4, 500 mM NaCl, 1% SDS, 5 mM BME, at 55° C. for 19 mins, then analyzed.
Lysates were prepared from HEK 293T cells expressing N-terminally HA-tagged ubiquitin (HA-Ub) to facilitate the observation of ubiquitinated proteins. In the absence of a DUB inhibitor, the HMW-Ub pool decomposed with a half-life of 34 min (FIG. 30A,B). […] Similar results were obtained in lysates prepared from Cos-1 cells expressing HA-Ub.

CC(C)(C)OC(=O)NCc1cccc(N=C=S)c1 [TU50]
effect on proteasome activity (20S proteasome): no effect on proteasome activity | apoptosis of K562 cells (K562 cells): induce apoptosis of K562 cells | selectivity of DUB inhibition (USP9x; HA-Ub-VS labeling): selectively inhibits USP9x | EC50 (USP9x; compound 40 minutes, then HA-Ub-VS (1.5 μM) 20 minutes): 3 ± 3 µM | EC50 (BaF3.p210; BaF3.p210, single dose, 48 h, Alamar Blue, read-out: EC50, viable cells): 8 ± 2 µM | selectivity of proliferation inhibition over cell panel (BaF3.p210; panel of 8 cell lines, 48 h and 72 h): selectively inhibits proliferation of cells that depend on USP9x | Bcr-Abl kinase level (Bcr-Abl kinase): cause degradation of Bcr-Abl kinase

CC(C)(C)OC(=O)NCc1ccc(OC(=O)Oc2ccccc2)cc1 [compound 14]
inhibition of cathepsin C (cathepsin C): inhibits cathepsin C

NCc1ccc(OC(=O)Oc2ccc(Cl)cc2)cc1 [compound 3]
inhibition of cathepsin C (cathepsin C): does not

NCc1ccc(OC(=O)Oc2ccccc2)cc1 [Compound C4, 4-(aminomethyl)phenyl(phenyl)carbonate]
inhibition of desumoylation (desumoylation): Neither G5 nor C4 inhibited desumoylation | stabilization of the HMW-Ub pool (DUBs): prevented decomposition of the HMW-Ub pool
